Results: US20260232767A1, “INTERLEUKIN-23 RECEPTOR ANTAGONIST PEPTIDES FOR USE IN THE TREATMENT OF PSORIASIS” (Janssen Pharmaceutica NV, priority 2023, published 2026)

Tested on: subjects with moderate-to-severe plaque psoriasis
Experiment: Hematology and chemistry laboratory values by CTCAE grade
Assay type: in vivo, human
Settings: through Week 56
Excerpt: The proportion of participants who discontinued study intervention due to one or more AEs was low (n=4). All events were singular in nature with no apparent dose-dependent increase (Table 48 and Table 52). The number of participants with abnormal hematology and chemistry laboratory values with CTCAE toxicity grade≥3 were low through the end of the study (Table 43 through Table 46). There was no apparent dose-dependent increase in laboratory abnormality occurrences.

CC(=O)NCCCC[C@@H]1NC(=O)[C@H](Cc2c[nH]c3c(C)cccc23)NC(=O)[C@H]([C@@H](C)O)NC(=O)[C@H](CC(N)=O)NC(=O)[C@@H](NC(C)=O)C(C)(C)SSC(C)(C)[C@@H](C(=O)N[C@@H](Cc2ccc(OCCN)cc2)C(=O)N[C@@H](Cc2ccc3ccccc3c2)C(=O)NC2(C(=O)N[C@@H](CCC(=O)O)C(=O)N[C@@H](CC(N)=O)C(=O)N[C@@H](Cc3cccnc3)C(=O)N(C)CC(N)=O)CCOCC2)NC1=O [IL-23 receptor antagonist peptide, Ac-[Pen]*-N-T-[W(7-Me)]-[Lys(Ac)]-[Pen]*-Phe[4-(2-aminoethoxy)]-[2-Nal]-[THP]-E-N-[3-Pal]-Sarc-NH2 (*[Pen]-[Pen]* formdisulfidebond)]
Alanine Aminotransferase (increased): Subjects with Grade 3 (25 mg BID): 0
Alanine Aminotransferase (increased): Subjects with Grade 4 (25 mg BID): 0
Albumin (decreased): Subjects with Grade 1 (25 mg BID): 0
Albumin (decreased): Subjects with Grade 2 (25 mg BID): 0
Albumin (decreased): Subjects with Grade 3 (25 mg BID): 0
Albumin (decreased): Subjects with Grade 4 (25 mg BID): 0
Albumin (decreased): Subjects with postbaseline maximum toxicity grade >0 (25 mg BID): 0
Alkaline Phosphatase (increased): Subjects with Grade 2 (25 mg BID): 0
Alkaline Phosphatase (increased): Subjects with Grade 3 (25 mg BID): 0
Alkaline Phosphatase (increased): Subjects with Grade 4 (25 mg BID): 0
Aspartate Aminotransferase (increased): Subjects with Grade 3 (25 mg BID): 0
Aspartate Aminotransferase (increased): Subjects with Grade 4 (25 mg BID): 0
Calcium corrected (decreased): Subjects with Grade 2 (25 mg BID): 0
Calcium corrected (decreased): Subjects with Grade 3 (25 mg BID): 0
Calcium corrected (decreased): Subjects with Grade 4 (25 mg BID): 0
Calcium corrected (increased): Subjects with Grade 1 (25 mg BID): 0
Calcium corrected (increased): Subjects with Grade 2 (25 mg BID): 0
Calcium corrected (increased): Subjects with Grade 3 (25 mg BID): 0
Calcium corrected (increased): Subjects with Grade 4 (25 mg BID): 0
Calcium corrected (increased): Subjects with postbaseline maximum toxicity grade >0 (25 mg BID): 0
Cholesterol (increased): Subjects with Grade 2 (25 mg BID): 0
Cholesterol (increased): Subjects with Grade 3 (25 mg BID): 0
Cholesterol (increased): Subjects with Grade 4 (25 mg BID): 0
Creatinine (increased): Subjects with Grade 1 (25 mg BID): 0
Creatinine (increased): Subjects with Grade 2 (25 mg BID): 0
Creatinine (increased): Subjects with Grade 3 (25 mg BID): 0
Creatinine (increased): Subjects with Grade 4 (25 mg BID): 0
Creatinine (increased): Subjects with postbaseline maximum toxicity grade >0 (25 mg BID): 0
Gamma Glutamyl Transferase (increased): Subjects with Grade 2 (25 mg BID): 0
Gamma Glutamyl Transferase (increased): Subjects with Grade 3 (25 mg BID): 0
Gamma Glutamyl Transferase (increased): Subjects with Grade 4 (25 mg BID): 0
Glucose (decreased): Subjects with Grade 2 (25 mg BID): 0
Glucose (decreased): Subjects with Grade 3 (25 mg BID): 0
Glucose (decreased): Subjects with Grade 4 (25 mg BID): 0
Hemoglobin (g/L) (decreased): subjects with Grade 1 (25 mg BID): 0
Hemoglobin (g/L) (decreased): subjects with Grade 2 (25 mg BID): 0
Hemoglobin (g/L) (decreased): subjects with Grade 3 (25 mg BID): 0
Hemoglobin (g/L) (decreased): subjects with Grade 4 (25 mg BID): 0
Hemoglobin (g/L) (decreased): subjects with postbaseline maximum toxicity grade >0 (25 mg BID): 0
Hemoglobin (g/L) (increased): subjects with Grade 2 (25 mg BID): 0
Hemoglobin (g/L) (increased): subjects with Grade 3 (25 mg BID): 0
Hemoglobin (g/L) (increased): subjects with Grade 4 (25 mg BID): 0
Lymphocytes (×10^9/L) (decreased): subjects with Grade 3 (25 mg BID): 0
Lymphocytes (×10^9/L) (decreased): subjects with Grade 4 (25 mg BID): 0
Lymphocytes (×10^9/L) (increased): subjects with Grade 1 (25 mg BID): 0
Lymphocytes (×10^9/L) (increased): subjects with Grade 3 (25 mg BID): 0
Lymphocytes (×10^9/L) (increased): subjects with Grade 4 (25 mg BID): 0
Magnesium (decreased): Subjects with Grade 1 (25 mg BID): 0
Magnesium (decreased): Subjects with Grade 2 (25 mg BID): 0
Magnesium (decreased): Subjects with Grade 3 (25 mg BID): 0
Magnesium (decreased): Subjects with Grade 4 (25 mg BID): 0
Magnesium (decreased): Subjects with postbaseline maximum toxicity grade >0 (25 mg BID): 0
Magnesium (increased): Subjects with Grade 2 (25 mg BID): 0
Magnesium (increased): Subjects with Grade 3 (25 mg BID): 0
Magnesium (increased): Subjects with Grade 4 (25 mg BID): 0
Neutrophils (×10^9/L) (decreased): subjects with Grade 3 (25 mg BID): 0
Neutrophils (×10^9/L) (decreased): subjects with Grade 4 (25 mg BID): 0
Platelets (×10^9/L) (decreased): subjects with Grade 2 (25 mg BID): 0
Platelets (×10^9/L) (decreased): subjects with Grade 3 (25 mg BID): 0
Platelets (×10^9/L) (decreased): subjects with Grade 4 (25 mg BID): 0
Potassium (decreased): Subjects with Grade 1 (25 mg BID): 0
Potassium (decreased): Subjects with Grade 2 (25 mg BID): 0
Potassium (decreased): Subjects with Grade 3 (25 mg BID): 0
Potassium (decreased): Subjects with Grade 4 (25 mg BID): 0
Potassium (decreased): Subjects with postbaseline maximum toxicity grade >0 (25 mg BID): 0
Potassium (increased): Subjects with Grade 2 (25 mg BID): 0
Potassium (increased): Subjects with Grade 3 (25 mg BID): 0
Potassium (increased): Subjects with Grade 4 (25 mg BID): 0
Sodium (decreased): Subjects with Grade 1 (25 mg BID): 0
Sodium (decreased): Subjects with Grade 2 (25 mg BID): 0
Sodium (decreased): Subjects with Grade 3 (25 mg BID): 0
Sodium (decreased): Subjects with Grade 4 (25 mg BID): 0
Sodium (decreased): Subjects with postbaseline maximum toxicity grade >0 (25 mg BID): 0
Sodium (increased): Subjects with Grade 2 (25 mg BID): 0
Sodium (increased): Subjects with Grade 3 (25 mg BID): 0
Sodium (increased): Subjects with Grade 4 (25 mg BID): 0
Total Bilirubin (increased): Subjects with Grade 2 (25 mg BID): 0
Total Bilirubin (increased): Subjects with Grade 3 (25 mg BID): 0
Total Bilirubin (increased): Subjects with Grade 4 (25 mg BID): 0
Triglycerides (increased): Subjects with Grade 3 (25 mg BID): 0
Triglycerides (increased): Subjects with postbaseline maximum toxicity grade >0 (25 mg BID): 8
WBC (×10^9/L) (decreased): subjects with Grade 3 (25 mg BID): 0
WBC (×10^9/L) (decreased): subjects with Grade 4 (25 mg BID): 0
WBC (×10^9/L) (increased): subjects with Grade 1 (25 mg BID): 0
WBC (×10^9/L) (increased): subjects with Grade 2 (25 mg BID): 0
WBC (×10^9/L) (increased): subjects with Grade 3 (25 mg BID): 0
WBC (×10^9/L) (increased): subjects with Grade 4 (25 mg BID): 0
WBC (×10^9/L) (increased): subjects with postbaseline maximum toxicity grade >0 (25 mg BID): 0
Alanine Aminotransferase (increased): Subjects with Grade 1 (25 mg QD): 7
Alanine Aminotransferase (increased): Subjects with Grade 4 (25 mg QD): 0
Alanine Aminotransferase (increased): Subjects with postbaseline maximum toxicity grade >0 (25 mg QD): 9
Albumin (decreased): Subjects with Grade 1 (25 mg QD): 0
Albumin (decreased): Subjects with Grade 2 (25 mg QD): 0
Albumin (decreased): Subjects with Grade 3 (25 mg QD): 0
Albumin (decreased): Subjects with Grade 4 (25 mg QD): 0
Albumin (decreased): Subjects with postbaseline maximum toxicity grade >0 (25 mg QD): 0
Alkaline Phosphatase (increased): Subjects with Grade 2 (25 mg QD): 0
Alkaline Phosphatase (increased): Subjects with Grade 3 (25 mg QD): 0
Alkaline Phosphatase (increased): Subjects with Grade 4 (25 mg QD): 0
Aspartate Aminotransferase (increased): Subjects with Grade 1 (25 mg QD): 5
Aspartate Aminotransferase (increased): Subjects with Grade 3 (25 mg QD): 0
Aspartate Aminotransferase (increased): Subjects with Grade 4 (25 mg QD): 0
Calcium corrected (decreased): Subjects with Grade 2 (25 mg QD): 0
Calcium corrected (decreased): Subjects with Grade 3 (25 mg QD): 0
Calcium corrected (decreased): Subjects with Grade 4 (25 mg QD): 0
Calcium corrected (increased): Subjects with Grade 1 (25 mg QD): 0
Calcium corrected (increased): Subjects with Grade 2 (25 mg QD): 0
Calcium corrected (increased): Subjects with Grade 3 (25 mg QD): 0
Calcium corrected (increased): Subjects with Grade 4 (25 mg QD): 0
Calcium corrected (increased): Subjects with postbaseline maximum toxicity grade >0 (25 mg QD): 0
Cholesterol (increased): Subjects with Grade 2 (25 mg QD): 0
Cholesterol (increased): Subjects with Grade 3 (25 mg QD): 0
Cholesterol (increased): Subjects with Grade 4 (25 mg QD): 0
Creatinine (increased): Subjects with Grade 2 (25 mg QD): 0
Creatinine (increased): Subjects with Grade 3 (25 mg QD): 0
Creatinine (increased): Subjects with Grade 4 (25 mg QD): 0
Gamma Glutamyl Transferase (increased): Subjects with Grade 1 (25 mg QD): 5
Gamma Glutamyl Transferase (increased): Subjects with Grade 2 (25 mg QD): 0
Gamma Glutamyl Transferase (increased): Subjects with Grade 3 (25 mg QD): 0
Gamma Glutamyl Transferase (increased): Subjects with Grade 4 (25 mg QD): 0
Gamma Glutamyl Transferase (increased): Subjects with postbaseline maximum toxicity grade >0 (25 mg QD): 5
Glucose (decreased): Subjects with Grade 2 (25 mg QD): 0
Glucose (decreased): Subjects with Grade 3 (25 mg QD): 0
Glucose (decreased): Subjects with Grade 4 (25 mg QD): 0
Hemoglobin (g/L) (decreased): subjects with Grade 2 (25 mg QD): 0
Hemoglobin (g/L) (decreased): subjects with Grade 3 (25 mg QD): 0
Hemoglobin (g/L) (decreased): subjects with Grade 4 (25 mg QD): 0
Hemoglobin (g/L) (increased): subjects with Grade 2 (25 mg QD): 0
Hemoglobin (g/L) (increased): subjects with Grade 3 (25 mg QD): 0
Hemoglobin (g/L) (increased): subjects with Grade 4 (25 mg QD): 0
Lymphocytes (×10^9/L) (decreased): subjects with Grade 1 (25 mg QD): 0
Lymphocytes (×10^9/L) (decreased): subjects with Grade 2 (25 mg QD): 0
Lymphocytes (×10^9/L) (decreased): subjects with Grade 3 (25 mg QD): 0
Lymphocytes (×10^9/L) (decreased): subjects with Grade 4 (25 mg QD): 0
Lymphocytes (×10^9/L) (decreased): subjects with postbaseline maximum toxicity grade >0 (25 mg QD): 0
Lymphocytes (×10^9/L) (increased): subjects with Grade 1 (25 mg QD): 0
Lymphocytes (×10^9/L) (increased): subjects with Grade 2 (25 mg QD): 0
Lymphocytes (×10^9/L) (increased): subjects with Grade 3 (25 mg QD): 0
Lymphocytes (×10^9/L) (increased): subjects with Grade 4 (25 mg QD): 0
Lymphocytes (×10^9/L) (increased): subjects with postbaseline maximum toxicity grade >0 (25 mg QD): 0
Magnesium (decreased): Subjects with Grade 1 (25 mg QD): 0
Magnesium (decreased): Subjects with Grade 2 (25 mg QD): 0
Magnesium (decreased): Subjects with Grade 3 (25 mg QD): 0
Magnesium (decreased): Subjects with Grade 4 (25 mg QD): 0
Magnesium (decreased): Subjects with postbaseline maximum toxicity grade >0 (25 mg QD): 0
Magnesium (increased): Subjects with Grade 2 (25 mg QD): 0
Magnesium (increased): Subjects with Grade 3 (25 mg QD): 0
Magnesium (increased): Subjects with Grade 4 (25 mg QD): 0
Neutrophils (×10^9/L) (decreased): subjects with Grade 2 (25 mg QD): 0
Neutrophils (×10^9/L) (decreased): subjects with Grade 3 (25 mg QD): 0
Neutrophils (×10^9/L) (decreased): subjects with Grade 4 (25 mg QD): 0
